Reference: patent US7786145B2, “Cyanoguanidine-based azole compounds useful as malonyl-CoA decarboxylase inhibitors” (Chugai Seiyaku Kabushiki Kaisha, priority 2003, dated 2010)

Legend:
[1] = biological target: T1, hMCD (malonyl-CoA decarboxylase) (Homo sapiens, UniProt O95822); assay: In Vitro MCD Inhibitory Assay; type: biochemical
T1 sequence (O95822 40-493): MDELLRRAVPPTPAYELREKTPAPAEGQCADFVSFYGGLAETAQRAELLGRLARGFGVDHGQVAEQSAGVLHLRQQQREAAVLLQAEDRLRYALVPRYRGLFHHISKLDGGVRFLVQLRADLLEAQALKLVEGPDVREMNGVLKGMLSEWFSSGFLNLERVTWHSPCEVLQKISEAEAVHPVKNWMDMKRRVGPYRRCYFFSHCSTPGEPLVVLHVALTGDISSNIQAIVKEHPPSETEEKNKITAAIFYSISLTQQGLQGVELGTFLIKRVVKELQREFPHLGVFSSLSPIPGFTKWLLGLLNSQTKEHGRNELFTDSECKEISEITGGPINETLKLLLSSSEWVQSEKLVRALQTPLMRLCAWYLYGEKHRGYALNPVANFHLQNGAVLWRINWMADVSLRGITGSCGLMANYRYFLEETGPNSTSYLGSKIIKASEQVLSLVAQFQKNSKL
Method: In Vitro MCD Inhibitory Assay:
The conversion of […] was assayed using a modified protocol as previously described by Kim, Y. S. and Kolattukudy, P. E. in 1978 (Arch. Biochem. Biophys 190:585 (1978)). As shown in eq. 1-3, the establishment of the kinetic equilibrium between malate/NAD and oxaloacetate/NADH was catalyzed by malic dehydrogenase (eq. 2). […] The accumulation of NADH can be continuously followed by monitoring the increase of fluorescence emission at 460 nm on a fluorescence plate reader. The fluorescence plate reader was calibrated using the authentic acetyl-CoA from Sigma. For a typical 96-well plate assay, the increase in the fluorescence emission (λex=360 nm, λem=460 nm, for NADH) in each well was used to calculate the initial velocity of hMCD. Each 50 μL assay contained 10 mM phosphate buffered saline (Sigma), pH 7.4, 0.05% Tween-20, 25 mM K2HPO4—KH2PO4 (Sigma), 2 mM Malate (Sigma), 2 mM NAD (Boehringer Mannheim), 0.786 units of MD (Roche Chemicals), 0.028 unit of CS (Roche Chemicals), 5-10 nM hMCD, and varying amounts of MCA substrate. Assays were initiated by the addition of MCA, and the rates were corrected for the background rate determined in the absence of hMCD.

[2] = test system: Isolated Working Rat Hearts; assay: Glucose oxidation in isolated working rat hearts; design: unit not given here; details: DMSO control
Method: Isolated Working Rat Heart Assay Protocol
Isolated working hearts from male Sprague-Dawley rats (300-350 g) are subjected to a 60-minute aerobic perfusion period. The working hearts are perfused with 95% O2, 5% CO2 with a modified Krebs-Henseleit solution containing 5 mM glucose; 100 μU/mL insulin; 3% fatty acid-free BSA; 2.5 mM free Ca^2+, and 0.4 to 1.2 mmol/L palmitate (Kantor et al., Circulation Research 86:580-588(2000)). The test compound is added 5 minutes before the perfusion period. DMSO (0.05%) is used as control.
Measurement of Glucose Oxidation Rates
Samples were taken at 10-minute intervals for measurements of experimental parameters. Glucose oxidation rates are determined by the quantitative collection of ^14CO2 produced by hearts perfused with buffer containing [U14]-Glucose (R. Barr and G. Lopaschuk, in “Measurement of cardiovascular function”, McNeill, J. H. ed., Chapter 2, CRC press, New York (1997)). After the perfusion, the ^14CO2 from the perfusae is subsequently released by injecting 1 mL of perfusate into sealed test tube containing 1 mL of 9N H2SO4. The tube was sealed with a rubber stopper attached to a scintillation vial containing a piece of filter papers saturated with 300 μl of hyamine hydroxide. The scintillation vials with filter papers were then removed and Ecolite Scintillation Fluid added. Samples were counted by standard procedures as described above. Average rates of glucose oxidation for each phase of perfusion are expressed as μmol/min/g dry wt as described above.
Rates of fatty acid oxidation are determined using the same method as described above for glucose oxidation rate measurement using [^14C]palmitate or by the quantitative collection of ^3H2O produced by hearts perfused with buffer containing [5-^3H]palmitate (R. Barr and G. Lopaschuk, in “Measurement of cardiovascular function”, McNeill, J. H. ed., Chapter 2, CRC press, New York (1997)). ^3H2O was separated from [5-^3H]palmitate by treating 0.5 mL buffer samples with 1.88 mL of a mixture of chloroform/methanol (1:2 v:v) and then adding 0.625 mL of chloroform and 0.625 mL of a 2 M KCl/HCl solution. The sample is centrifuged for 10 min and aqueous phase was removed and treated with a mixture of 1 mL of chloroform, 1 mL of methanol and 0.9 mL KCl/HCl with a ration of 1:1:0.9. The aqueous layer was then counted for total ^3H2O determination. […] Average rates of fatty acid oxidation for each phase of perfusion are expressed as nmol/min/g dry wt after taking consideration the dilution factor. Active compounds are characterized by an increase in glucose oxidation and/or decrease in fatty acid oxidation as compared to the control experiments (DMSO). The compounds that caused statistically significant increases in glucose oxidation and/or decrease in fatty acid oxidation are considered to be active. Statistical significance was calculated using the Student's t test for paired or unpaired samples, as appropriate. The results with P<0.05 are considered to be statistically significant.

breast carcinoma cells = details: cited from earlier work
CPT-I muscle isoform = details: muscle isoform of CPT-I; read-out: IC50 of malonyl-CoA inhibition; cited from earlier work
CPT-I liver isoform = details: liver isoform of CPT-I; read-out: IC50 of malonyl-CoA inhibition; cited from earlier work

| SMILES | Ki ([1]; Table 1, MCD inhibition) | other results |
| --- | --- | --- |
| COc1ccc(NC(=NC#N)Nc2ccc3nc(S)sc3c2)cc1 [CBM-000302018] | 133 nM | – |
| CCCN(/C(=N/C#N)Nc1ccccc1)c1ccc2nc(S)sc2c1 [CBM-000302043] | 7.2 nM | – |
| N#C/N=C(\Nc1ccc(OC(F)(F)F)cc1)Nc1ccc2nc(S)sc2c1 [CBM-000302047, N-cyano-N′-(2-mercapto-benzothiazol-6-yl)-N″-(4-trifluoromethoxy-phenyl)guanidine] | 242 nM | – |
| CCCCOc1ccc(NC(=NC#N)Nc2ccc3nc(S)sc3c2)cc1 [CBM-000302048] | 35.1 nM | – |
| CCOc1ccc(NC(=NC#N)Nc2ccc3nc(S)sc3c2)cc1 [CBM-000302049] | 448 nM | – |
| CCCN(C(=NC#N)Nc1ccc(OC)cc1)c1ccc2nc(S)sc2c1 [CBM-000302050] | 15.2 nM | – |
| CCCN(/C(=N/C#N)Nc1ccccc1)c1ccc2nc(S)sc2c1 [CBM-000302051] | 5.6 nM | – |
| CCCN(C(=NC#N)Nc1ccc(OC(F)(F)F)cc1)c1ccc2nc(S)sc2c1 [CBM-000302052] | 67.1 nM | Ki ([1]; Table 2, MCD inhibition): 67.1 nM; GOX [2]: 131 |
| COc1ccc(NC(=NC#N)N(CC(C)C)c2ccc3nc(S)sc3c2)cc1 [CBM-000302064] | 7.1 nM | – |
| CC(C)CN(C(=NC#N)Nc1ccc(OC(F)(F)F)cc1)c1ccc2nc(S)sc2c1 [CBM-000302065] | 22.5 nM | – |
| COC(=O)c1ccc(NC(=NC#N)N(CC(C)C)c2ccc3nc(S)sc3c2)cc1 [CBM-000302073] | 4.7 nM | – |
| CCCN(C(=NC#N)Nc1ccc(C(F)(F)F)cc1)c1ccc2nc(S)sc2c1 [CBM-000302075] | 3.5 nM | Ki ([1]; Table 2, MCD inhibition): 3.5 nM; GOX [2]: 230 |
| CC(C)CN(C(=NC#N)Nc1ccc(C(F)(F)F)cc1)c1ccc2nc(S)sc2c1 [CBM-000302076] | 82.4 nM | – |
| CC(C)CN(C(=NC#N)Nc1ccc(C(=O)O)cc1)c1ccc2nc(S)sc2c1 [CBM-000302088] | 0.3 nM | – |
| CCN(/C(=N/C#N)Nc1ccc(C(F)(F)F)cc1)c1ccc2nc(S)sc2c1 [CBM-000302107, N-cyano-N′-ethyl-N′-(2-mercapto-benzothiazol-6-yl)-N″-(4-trifluoromethyl-phenyl)guanidine] | 1.7 nM | Ki ([1]; Table 2, MCD inhibition): 1.7 nM; GOX [2]: 290 |
| CCCN(C(=NC#N)Nc1ccc(C(=O)O)cc1)c1ccc2nc(S)sc2c1 [CBM-000302112] | 1.5 nM | – |
| CCCCN(/C(=N/C#N)Nc1cccnc1)c1ccc2nc(S)sc2c1 [CBM-000302113] | 110 nM | – |
| CCCCN(C(=NC#N)Nc1cccc(C(F)(F)F)c1)c1ccc2nc(S)sc2c1 [CBM-000302114] | 210 nM | – |
| CC(C)CN(C(=NC#N)Nc1cccc(C(F)(F)F)c1)c1ccc2nc(S)sc2c1 [CBM-000302115] | 320 nM | – |
| CN(C(=NC#N)Nc1ccc(C(F)(F)F)cc1)c1ccc2nc(S)sc2c1 [CBM-000302167] | 2 nM | Ki ([1]; Table 2, MCD inhibition): 2 nM; GOX [2]: 239 |
| CCN(C(=NC#N)Nc1ccc(C(N)=O)cc1)c1ccc2nc(S)sc2c1 [CBM-000302189] | 2.8 nM | Ki ([1]; Table 2, MCD inhibition): 2.8 nM; GOX [2]: 96 |
| CCN(C(=NC#N)Nc1ccc(C(=O)NCC(C)C)cc1)c1ccc2nc(S)sc2c1 [CBM-000302243] | 24.2 nM | – |
| CCCCNC(=O)c1ccc(NC(=NC#N)N(CC)c2ccc3nc(S)sc3c2)cc1 [CBM-000302244] | 5.6 nM | Ki ([1]; Table 2, MCD inhibition): 5.6 nM; GOX [2]: 152 |
| CCN(C(=NC#N)NCc1ccc(C(F)(F)F)cc1)c1ccc2nc(S)sc2c1 [CBM-000302290] | 82.4 nM | – |
| CCN(C(=NC#N)NCc1ccc(OC(F)(F)F)cc1)c1ccc2nc(S)sc2c1 [CBM-000302291] | 49.5 nM | – |
| CC(C)N(/C(=N/C#N)Oc1ccccc1)c1ccc2nc(S)sc2c1 [CBM-000302339, 3-Cyano-1-isopropyl-1-(2-mercapto-benzothiazol-6-yl)-2-phenyl-isourea] | 5.9 nM | – |
| CCCCCCCCCCCCCCOc1ccc(C(=O)O)o1 [TOFA, 5-(tetradecyloxy)-2-furoic acid] | – | malonyl-CoA level (breast carcinoma cells): 60 % of the control |
| CC(C)(COP(=O)(O)OP(=O)(O)OC[C@H]1O[C@@H](n2cnc3c(N)ncnc32)[C@H](O)[C@@H]1OP(=O)(O)O)[C@@H](O)C(=O)NCCC(=O)NCCSC(=O)CC(=O)O [malonyl-CoA] | – | IC50 (CPT-I muscle isoform): 30 nM; IC50 (CPT-I liver isoform): 2500 nM |
